Among the data in patent publication US20260285872A1, “COMPOUNDS AND METHODS FOR DEGRADING GSPT1” (priority 2023, published 2026) are IC50 and DC50 values, retold here.

Assay [1] has as its system NCI-H1155 cells. Description: NSCLC cell viability, CellTiter-Glo, NCI-H1155 cells. The format is cell-based. The note with it: Homo sapiens, read-out: Cell viability classification (NCI-H1155). On the technique in general: Cellular ATP, detected with luciferase, serves as a proxy for viable cell number.
In assay [2] the target is GSPT1 (Homo sapiens, UniProt P15170+Q96SW2). In kind it is cell-based. The protocol: GSPT1_HiBIT_HEK293 cells were culture in DMEM medium with 10% FBS under standard tissue culture conditions. […] GSPT1 level was determined in along with the Nano-Glo HiBiT Lytic Detection system [Promega N3050] with final concentration of 1×. The luminescence was normalized to that of DMSO-treated samples. DC50 values were obtained using three-parameter non-linear regressions using Prism (GraphPad).

[3] abbreviates: NCI-H1155 cells, CellTiter-Glo, 72 hours of treatment.
[4] abbreviates: read-out: GSPT1 degradation classification; DC50, GSPT1_HiBIT_HEK293 cells, 16 hours, Nano-Glo HiBiT Lytic Detection.
Where [5] appears, read: DC50, GSPT1_HiBIT_HEK293 cells, 16 hours, Nano-Glo HiBiT Lytic Detection; read-out: GSPT1 degradation classification.

pIC50: −log10 of the molar value. Like-named read-outs stand apart in the source and are kept apart here.

Sequence of GSPT1 (P15170 whole entry): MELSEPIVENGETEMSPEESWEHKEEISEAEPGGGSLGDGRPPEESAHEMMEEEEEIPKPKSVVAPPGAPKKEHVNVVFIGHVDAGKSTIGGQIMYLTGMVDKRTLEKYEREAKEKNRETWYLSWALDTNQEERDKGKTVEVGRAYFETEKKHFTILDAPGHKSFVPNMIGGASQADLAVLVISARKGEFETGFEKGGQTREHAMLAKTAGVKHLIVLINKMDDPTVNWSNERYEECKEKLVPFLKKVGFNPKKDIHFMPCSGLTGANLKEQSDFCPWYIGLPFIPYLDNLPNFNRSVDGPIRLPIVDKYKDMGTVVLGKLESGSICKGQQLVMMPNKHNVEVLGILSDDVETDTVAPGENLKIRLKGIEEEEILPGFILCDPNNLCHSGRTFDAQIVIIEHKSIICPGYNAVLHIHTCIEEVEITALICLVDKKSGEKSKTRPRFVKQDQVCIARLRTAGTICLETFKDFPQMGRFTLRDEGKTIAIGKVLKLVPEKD
Sequence of GSPT1 (Q96SW2 whole entry): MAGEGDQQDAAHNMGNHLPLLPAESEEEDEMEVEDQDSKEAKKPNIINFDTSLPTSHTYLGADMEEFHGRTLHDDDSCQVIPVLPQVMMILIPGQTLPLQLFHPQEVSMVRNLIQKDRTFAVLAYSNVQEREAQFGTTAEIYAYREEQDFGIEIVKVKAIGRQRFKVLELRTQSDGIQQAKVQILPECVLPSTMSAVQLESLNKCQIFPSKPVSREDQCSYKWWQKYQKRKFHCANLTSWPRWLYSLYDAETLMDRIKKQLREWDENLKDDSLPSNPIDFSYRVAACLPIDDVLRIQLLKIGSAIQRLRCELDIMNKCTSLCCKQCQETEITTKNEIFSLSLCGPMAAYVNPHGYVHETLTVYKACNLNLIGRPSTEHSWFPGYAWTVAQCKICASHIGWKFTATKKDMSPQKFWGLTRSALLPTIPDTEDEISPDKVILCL
Sequence of GSPT1 (Q16531 whole entry partner): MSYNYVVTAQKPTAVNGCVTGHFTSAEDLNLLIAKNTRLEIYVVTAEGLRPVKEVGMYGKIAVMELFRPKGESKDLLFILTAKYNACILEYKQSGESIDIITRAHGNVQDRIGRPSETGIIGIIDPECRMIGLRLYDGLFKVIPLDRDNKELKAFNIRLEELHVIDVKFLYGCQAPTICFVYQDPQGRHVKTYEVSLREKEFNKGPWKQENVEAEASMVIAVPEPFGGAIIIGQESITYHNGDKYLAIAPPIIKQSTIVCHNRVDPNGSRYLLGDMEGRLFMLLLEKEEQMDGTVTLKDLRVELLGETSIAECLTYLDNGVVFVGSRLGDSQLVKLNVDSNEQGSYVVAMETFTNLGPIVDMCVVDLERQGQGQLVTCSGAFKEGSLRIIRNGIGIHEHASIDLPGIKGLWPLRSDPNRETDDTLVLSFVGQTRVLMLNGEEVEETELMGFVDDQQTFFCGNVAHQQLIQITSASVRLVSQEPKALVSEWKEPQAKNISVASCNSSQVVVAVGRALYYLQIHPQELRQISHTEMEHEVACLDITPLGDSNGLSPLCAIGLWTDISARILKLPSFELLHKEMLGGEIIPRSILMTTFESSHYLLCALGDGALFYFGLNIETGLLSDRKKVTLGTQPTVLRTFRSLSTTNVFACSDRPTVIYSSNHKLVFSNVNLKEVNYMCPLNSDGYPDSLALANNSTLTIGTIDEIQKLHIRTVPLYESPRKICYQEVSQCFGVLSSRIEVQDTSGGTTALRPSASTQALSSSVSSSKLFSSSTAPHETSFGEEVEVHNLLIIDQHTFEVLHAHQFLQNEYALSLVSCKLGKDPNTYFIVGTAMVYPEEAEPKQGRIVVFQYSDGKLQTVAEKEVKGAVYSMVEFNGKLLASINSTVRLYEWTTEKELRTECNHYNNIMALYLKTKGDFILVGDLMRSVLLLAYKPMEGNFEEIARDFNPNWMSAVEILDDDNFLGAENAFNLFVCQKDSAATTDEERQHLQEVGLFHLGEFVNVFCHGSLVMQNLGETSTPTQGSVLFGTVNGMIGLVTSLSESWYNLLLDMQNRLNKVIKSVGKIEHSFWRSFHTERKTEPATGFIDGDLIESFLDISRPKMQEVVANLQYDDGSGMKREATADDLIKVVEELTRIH

Consider `O=C1CCC(N2Cc3cc(C(=O)N4CCC5(C4)CC(F)(F)C5)ccc3C2=O)C(=O)N1` (stereo not drawn) [Example 189, 3-(5-(2,2-difluoro-6-azaspiro[3.4]octane-6-carbonyl)-1-oxoisoindolin-2-yl)piperidine-2,6-dione], for which the pIC50 in assay [1] (setting [3]) is 6.00 to 7.00. For the same molecule, in assay [2] (setting [4]), the DC50 is over 1000 nM.

With `O=C1CCC(N2Cc3cc(C(=O)N4CC5(CC(c6ccccc6F)C5)C4)ccc3C2=O)C(=O)N1` (stereo not drawn) [Example 196, 3-(5-(6-(2-fluorophenyl)-2-azaspiro[3.3]heptane-2-carbonyl)-1-oxoisoindolin-2-yl)piperidine-2,6-dione], in assay [1] (setting [3]), the pIC50 is 7.00 to 8.00. Besides, the DC50 in assay [2] (setting [5]) is under 100 nM.

For the molecule `O=C1CCC(c2nc3ccc(C(=O)N4Cc5ccc(F)c(Cl)c5C4)cc3o2)C(=O)N1` (stereo not drawn) [Example 197, 3-(6-(4-chloro-5-fluoroisoindoline-2-carbonyl)benzo[d]oxazol-2-yl)piperidine-2,6-dione], the pIC50 in assay [1] (setting [3]) is 6.00 to 7.00. Also, in assay [2] (setting [5]), the DC50 was over 1000 nM.

As to `O=C1CCC(c2nc3ccc(C(=O)N4CC5(CCC(F)(F)C5)C4)cc3o2)C(=O)N1` (stereo not drawn) [Example 198, 3-(6-(6,6-difluoro-2-azaspiro[3.4]octane-2-carbonyl)benzo[d]oxazol-2-yl)piperidine-2,6-dione], the pIC50 in assay [1] (setting [3]) is under 6.00. The DC50 in assay [2] (setting [5]) was over 1000 nM.

For the molecule `Cc1cc(F)c2c(c1)CN(C(=O)c1ccc3nc(C4CCC(=O)NC4=O)oc3c1)C2` (stereo not drawn) [Example 199, 3-(6-(4-fluoro-6-methylisoindoline-2-carbonyl)benzo[d]oxazol-2-yl)piperidine-2,6-dione], in assay [1] (setting [3]), the pIC50 is 6.00 to 7.00. For the same molecule, in assay [2] (setting [5]), the DC50 is over 1000 nM.

For `N#Cc1cc(F)c2c(c1)CN(C(=O)c1ccc3nc(C4CCC(=O)NC4=O)oc3c1)C2` (stereo not drawn) [Example 200, 2-(2-(2,6-dioxopiperidin-3-yl)benzo[d]oxazole-6-carbonyl)-7-fluoroisoindoline-5-carbonitrile], the pIC50 in assay [1] (setting [3]) was 6.00 to 7.00. Moreover, the DC50 in assay [2] (setting [5]) was over 1000 nM.

In the case of `O=C1CCC(N2Cc3cc(C(=O)N4CCC5(CCC(F)(F)C5)C4)ccc3C2=O)C(=O)N1` (stereo not drawn) [Example 201, 3-(5-(7,7-difluoro-2-azaspiro[4.4]nonane-2-carbonyl)-1-oxoisoindolin-2-yl)piperidine-2,6-dione], the pIC50 in assay [1] (setting [3]) was 6.00 to 7.00. The DC50 in assay [2] (setting [4]) is over 1000 nM.

With `O=C1CCC(N2Cc3cc(C(=O)N4CC(F)(c5ccccc5F)C4)ccc3C2=O)C(=O)N1` (stereo not drawn) [Example 202, 3-(5-(3-fluoro-3-(2-fluorophenyl)azetidine-1-carbonyl)-1-oxoisoindolin-2-yl)piperidine-2,6-dione], the pIC50 in assay [1] (setting [3]) was 7.00 to 8.00. For the same molecule, the DC50 in assay [2] (setting [4]) lay in the range of 100 to 300 nM.

With `O=C1CCC(N2Cc3cc(C(=O)N4CC5(C4)CC(F)(c4cccc(F)c4)C5)ccc3C2=O)C(=O)N1` (stereo not drawn) [Example 203, 3-(5-(6-fluoro-6-(3-fluorophenyl)-2-azaspiro[3.3]heptane-2-carbonyl)-1-oxoisoindolin-2-yl)piperidine-2,6-dione], the pIC50 in assay [1] (NCI-H1155, 72 h) was 6.00 to 7.00. The DC50 in assay [2] (setting [4]) is over 1000 nM.

On to `O=C1CCC(N2Cc3cc(C(=O)N4CC5(C4)CC(F)(c4ccccc4F)C5)ccc3C2=O)C(=O)N1` (stereo not drawn) [Example 204, 3-(5-(6-fluoro-6-(2-fluorophenyl)-2-azaspiro[3.3]heptane-2-carbonyl)-1-oxoisoindolin-2-yl)piperidine-2,6-dione], for which the pIC50 in assay [1] (setting [3]) is 6.00 to 7.00. Also, the DC50 in assay [2] (setting [4]) was 100 to 300 nM.

In the case of `O=C1CCC(N2Cc3cc(C(=O)N4CC5(CC(c6ccc(F)cc6)C5)C4)ccc3C2=O)C(=O)N1` (stereo not drawn) [Example 205, 3-(5-(6-(4-fluorophenyl)-2-azaspiro[3.3]heptane-2-carbonyl)-1-oxoisoindolin-2-yl)piperidine-2,6-dione], the pIC50 in assay [1] (setting [3]) is 7.00 to 8.00. For the same molecule, the DC50 in assay [2] (setting [5]) fell in the range of 100 to 300 nM.

For `O=C1CCC(c2nc3ccc(C(=O)N4CC5(C=C(c6ccc(F)cc6)C5)C4)cc3o2)C(=O)N1` (stereo not drawn) [Example 206, 3-(6-(6-(4-fluorophenyl)-2-azaspiro[3.3]hept-5-ene-2-carbonyl)benzo[d]oxazol-2-yl)piperidine-2,6-dione], the pIC50 in assay [1] (setting [3]) is under 6.00. Also, the DC50 in assay [2] (setting [5]) is over 1000 nM.

`O=C1CCC(N2Cc3cc(C(=O)N4CC5(C=C(c6cccc(F)c6)C5)C4)ccc3C2=O)C(=O)N1` (stereo not drawn) [Example 207, 3-(5-(6-(3-fluorophenyl)-2-azaspiro[3.3]hept-5-ene-2-carbonyl)-1-oxoisoindolin-2-yl)piperidine-2,6-dione]: in assay [1] (setting [3]), the pIC50 is 7.00 to 8.00. Moreover, the DC50 in assay [2] (setting [4]) is under 100 nM.

As to `O=C1CCC(N2Cc3cc(C(=O)N4CC5(C=C(c6ccccc6F)C5)C4)ccc3C2=O)C(=O)N1` (stereo not drawn) [Example 208, 3-(5-(6-(2-fluorophenyl)-2-azaspiro[3.3]hept-5-ene-2-carbonyl)-1-oxoisoindolin-2-yl)piperidine-2,6-dione], the pIC50 in assay [1] (setting [3]) was over 8.00. Further, the DC50 in assay [2] (setting [4]) is under 100 nM.

Take `O=C1CCC(N2Cc3cc(C(=O)N4CC5(C=C(c6ccc(C(F)(F)F)cc6)C5)C4)ccc3C2=O)C(=O)N1` (stereo not drawn) [Example 209, 3-(1-oxo-5-(6-(4-(trifluoromethyl)phenyl)-2-azaspiro[3.3]hept-5-ene-2-carbonyl)isoindolin-2-yl)piperidine-2,6-dione]: the pIC50 in assay [1] (setting [3]) is over 8.00. Moreover, the DC50 in assay [2] (setting [4]) is under 100 nM.

Regarding `O=C1CCC(c2nc3ccc(C(=O)N4Cc5c(F)ccc(OC(F)(F)F)c5C4)cc3o2)C(=O)N1` (stereo not drawn) [Example 210, 3-(6-(4-fluoro-7-(trifluoromethoxy)isoindoline-2-carbonyl)benzo[d]oxazol-2-yl)piperidine-2,6-dione], in assay [1] (setting [3]), the pIC50 was under 6.00. Moreover, in assay [2] (setting [5]), the DC50 is over 1000 nM.

With `O=C1CCC(c2nc3ccc(C(=O)N4Cc5cccc(F)c5C45CC5)cc3o2)C(=O)N1` (stereo not drawn) [Example 211, 3-(6-(7′-fluorospiro[cyclopropane-1,1′-isoindoline]-2′-carbonyl)benzo[d]oxazol-2-yl)piperidine-2,6-dione], in assay [1] (setting [3]), the pIC50 was 6.00 to 7.00. Also, the DC50 in assay [2] (setting [5]) was over 1000 nM.

Regarding `O=C1CCC(N2Cc3cc(C(=O)NC4CC5(C4)CC(c4ccc(F)c(F)c4)C5)ccc3C2=O)C(=O)N1` (stereo not drawn) [Example 217, N-(6-(3,4-difluorophenyl)spiro[3.3]heptan-2-yl)-2-(2,6-dioxopiperidin-3-yl)-1-oxoisoindoline-5-carboxamide], the pIC50 in assay [1] (setting [3]) is 7.00 to 8.00. For the same molecule, the DC50 in assay [2] (setting [5]) was 100 to 300 nM.

As to `O=C1CCC(N2Cc3cc(C(=O)NC4CC5(C4)CC(c4ccc(F)cc4F)C5)ccc3C2=O)C(=O)N1` (stereo not drawn) [Example 218, N-(6-(2,4-difluorophenyl)spiro[3.3]heptan-2-yl)-2-(2,6-dioxopiperidin-3-yl)-1-oxoisoindoline-5-carboxamide], the pIC50 in assay [1] (setting [3]) was over 8.00. For the same molecule, in assay [2] (setting [5]), the DC50 is under 100 nM.

Turning to `N#Cc1ccc(C2CC3(CC(NC(=O)c4ccc5c(c4)CN(C4CCC(=O)NC4=O)C5=O)C3)C2)cc1` (stereo not drawn) [Example 219, N-(6-(4-cyanophenyl)spiro[3.3]heptan-2-yl)-2-(2,6-dioxopiperidin-3-yl)-1-oxoisoindoline-5-carboxamide], in assay [1] (setting [3]), the pIC50 is 7.00 to 8.00. In assay [2] (setting [5]), the DC50 is 100 to 300 nM.

As for `O=C1CCC(N2Cc3cc(C(=O)NC4CC5(C4)CC(c4ccc(C(F)(F)F)cc4)C5)ccc3C2=O)C(=O)N1` (stereo not drawn) [Example 226, 2-(2,6-dioxopiperidin-3-yl)-1-oxo-N-(6-(4-(trifluoromethyl)phenyl)spiro[3.3]heptan-2-yl)isoindoline-5-carboxamide], in assay [1] (setting [3]), the pIC50 is 7.00 to 8.00. Further, in assay [2] (setting [5]), the DC50 fell in the range of 100 to 300 nM.

For `Cc1ccc(C2CC3(CC(NC(=O)c4ccc5c(c4)CN(C4CCC(=O)NC4=O)C5=O)C3)C2)cc1` (stereo not drawn) [Example 227, 2-(2,6-dioxopiperidin-3-yl)-1-oxo-N-(6-(p-tolyl)spiro[3.3]heptan-2-yl)isoindoline-5-carboxamide], the pIC50 in assay [1] (setting [3]) is over 8.00. For the same molecule, the DC50 in assay [2] (setting [4]) is under 100 nM.

As to `O=C1CCC(N2Cc3cc(C(=O)N4CC5(CC(c6ccc(C(F)(F)F)cc6)C5)C4)ccc3C2=O)C(=O)N1` (stereo not drawn) [Example 230, 3-(1-oxo-5-(6-(4-(trifluoromethyl)phenyl)-2-azaspiro[3.3]heptane-2-carbonyl)isoindolin-2-yl)piperidine-2,6-dione], the pIC50 in assay [1] (setting [3]) was over 8.00. Besides, the DC50 in assay [2] (setting [5]) was under 100 nM.

For the molecule `Cc1ccc(C2CC3(C2)CN(C(=O)c2ccc4c(c2)CN(C2CCC(=O)NC2=O)C4=O)C3)cc1` (stereo not drawn) [Example 231, 3-(1-oxo-5-(6-(p-tolyl)-2-azaspiro[3.3]heptane-2-carbonyl)isoindolin-2-yl)piperidine-2,6-dione], the pIC50 in assay [1] (setting [3]) is over 8.00. Moreover, the DC50 in assay [2] (setting [5]) is under 100 nM.

For the molecule `O=C1CCC(N2Cc3cc(C(=O)N4CC5(C=C(c6ccc(F)cc6F)C5)C4)ccc3C2=O)C(=O)N1` (stereo not drawn) [Example 235], the pIC50 in assay [1] (setting [3]) was over 8.00. The DC50 in assay [2] (setting [4]) is under 100 nM.

Consider `Cc1ccc(C2=CC3(C2)CN(C(=O)c2ccc4c(c2)CN(C2CCC(=O)NC2=O)C4=O)C3)cc1` (stereo not drawn) [Example 236, 3-(1-oxo-5-(6-(p-tolyl)-2-azaspiro[3.3]hept-5-ene-2-carbonyl)isoindolin-2-yl)piperidine-2,6-dione], for which, in assay [1] (setting [3]), the pIC50 was over 8.00. In assay [2] (setting [4]), the DC50 was under 100 nM.

Take `O=C1CCC(N2Cc3cc(C(=O)N4CC5(C=C(c6ccc(C(F)(F)F)c(F)c6)C5)C4)ccc3C2=O)C(=O)N1` (stereo not drawn) [Example 240, 3-(5-(6-(3-fluoro-4-(trifluoromethyl)phenyl)-2-azaspiro[3.3]hept-5-ene-2-carbonyl)-1-oxoisoindolin-2-yl)piperidine-2,6-dione]: in assay [1] (setting [3]), the pIC50 was over 8.00. The DC50 in assay [2] (setting [4]) was under 100 nM.
